Activity calls are given as the source filed them. No cut-off for these calls is given here.
Assays:
A549 [1] = experiment: Inhibition of miR-509-3p (unknown origin) transfected in human A549 cells assessed as luciferase activity at 50 uM by dual luciferase reporter gene assay; assay type: cell-based; set-up: scale not given: the % may be the effect or the level left
[2] = Binding affinity to miR-509-3p (unknown origin) assessed as heteroduplex formation by CD spectra analysis
[3] = Binding affinity to miR-509-3p (unknown origin) assessed as apparent melting temperature by UV-spectrophotometeric analysis
A549 [4] = experiment: Inhibition of miR-509-3p (unknown origin) transfected in human A549 cells at 10 to 50 uM by dual luciferase reporter gene assay; assay type: cell-based
[5] = Binding affinity to miR-509-3p (unknown origin) assessed as heteroduplex formation at 1:15 and 1:5 ratio after 2 hrs by EMSA
A549 [6] = experiment: Inhibition of miR-509-3p (unknown origin) transfected in human A549 cells at 100 uM after 12 hrs by fluorescence microscopy; assay type: cell-based
A549 [7] = experiment: Inhibition of miR-509-3p (unknown origin) transfected in human A549 cells by dual luciferase reporter gene assay; assay type: cell-based

| Activity [2] | Tm(app) [3] | Activity [5] | SMILES | Activity (A549 [1]) | inhibition (A549 [4]) | inhibition (A549 [6]) | inhibition (A549 [7]) |
| --- | --- | --- | --- | --- | --- | --- | --- |
| – | – | – | Cc1cn(CC(=O)N(CCNC(=O)CN(CCNC(=O)CN(CCNC(=O)CN(CCNC(=O)CN(CCNC(=O)CN(CCNC(=O)CN(CCNC(=O)COCCOCCNC(=S)Nc2ccc(C3c4ccc(O)cc4OC4=CC(=O)C=CC43)c(C(=O)O)c2)C(=O)Cn2ccc(N)nc2=O)C(=O)Cn2cnc3c(N)ncnc32)C(=O)Cn2ccc(N)nc2=O)C(=O)Cn2cnc3c(=O)[nH]c(N)nc32)C(=O)Cn2cnc3c(=O)[nH]c(N)nc32)C(=O)Cn2cnc3c(N)ncnc32)CC(=O)NCCN(CC(=O)NCCN(CC(=O)NCCN(CC(=O)NCCN(CC(=O)NCCN(CC(=O)NCCN(CC(=O)NCCN(CC(=O)NCC(=O)NC(COP(=O)(O)O)C(=O)NC(COP(=O)(O)O)C(=O)NCC(N)=O)C(=O)Cn2cc(C)c(=O)[nH]c2=O)C(=O)Cn2cnc3c(=O)[nH]c(N)nc32)C(=O)Cn2ccc(N)nc2=O)C(=O)Cn2ccc(N)nc2=O)C(=O)Cn2cnc3c(=O)[nH]c(N)nc32)C(=O)Cn2cnc3c(N)ncnc32)C(=O)Cn2cnc3c(=O)[nH]c(N)nc32)c(=O)[nH]c1=O (stereo unspecified) | < 40% | – | – | – |
| Active | 80 °C | Active | Cc1cn(CC(=O)N(CCNC(=O)CN(CCNC(=O)CN(CCNC(=O)CN(CCNC(=O)CN(CCNC(=O)CN(CCNC(=O)CN(CCNC(=O)CN(CCNC(=O)CN(CCNC(=O)CN(CCNC(=O)CN(CCNC(=O)CN(CCNC(=O)COCCOCCNC(=S)Nc2ccc(C3c4ccc(O)cc4Oc4cc(O)ccc43)c(C(=O)O)c2)C(=O)Cn2cnc3c(N)ncnc32)C(=O)Cn2cnc3c(=O)[nH]c(N)nc32)C(=O)Cn2cnc3c(N)ncnc32)C(=O)Cn2ccc(N)nc2=O)C(=O)Cn2cnc3c(=O)[nH]c(N)nc32)C(=O)Cn2cc(C)c(=O)[nH]c2=O)C(=O)Cn2cnc3c(N)ncnc32)C(=O)Cn2ccc(N)nc2=O)C(=O)Cn2ccc(N)nc2=O)C(=O)Cn2cnc3c(N)ncnc32)C(=O)Cn2cnc3c(N)ncnc32)CC(=O)NCCN(CC(=O)NCCN(CC(=O)N[C@@H](CCCCN)C(=O)N[C@@H](CCCCN)C(N)=O)C(=O)Cn2cnc3c(N)ncnc32)C(=O)Cn2ccc(N)nc2=O)c(=O)[nH]c1=O | – | Active | inactive | – |
| Active | 74 °C | Active | Cc1cn(CC(=O)N(CCNC(=O)CN(CCNC(=O)CN(CCNC(=O)CN(CCNC(=O)CN(CCNC(=O)CN(CCNC(=O)CN(CCNC(=O)CN(CCNC(=O)CN(CCNC(=O)CN(CCNC(=O)CN(CCNC(=O)CN(CCNC(=O)COCCOCCNC(=S)Nc2ccc(C3c4ccc(O)cc4OC4=CC(=O)C=CC43)c(C(=O)O)c2)C(=O)Cn2cnc3c(N)ncnc32)C(=O)Cn2cnc3c(=O)[nH]c(N)nc32)C(=O)Cn2cnc3c(N)ncnc32)C(=O)Cn2ccc(N)nc2=O)C(=O)Cn2cnc3c(=O)[nH]c(N)nc32)C(=O)Cn2cc(C)c(=O)[nH]c2=O)C(=O)Cn2cnc3c(N)ncnc32)C(=O)Cn2ccc(N)nc2=O)C(=O)Cn2ccc(N)nc2=O)C(=O)Cn2cnc3c(N)ncnc32)C(=O)Cn2cnc3c(N)ncnc32)CC(=O)NCCN(CC(=O)NCCN(CC(=O)NCC(=O)NC(COP(=O)(O)O)C(=O)NC(COP(=O)(O)O)C(=O)NCC(N)=O)C(=O)Cn2cnc3c(N)ncnc32)C(=O)Cn2ccc(N)nc2=O)c(=O)[nH]c1=O (stereo unspecified) | – | – | inactive | Dose-dependent effect |
